Each structure is given as a SMILES string.

One data set has as its system A673 cells. Kind of data set: Cell viability and proliferation, A673 cells (crystal violet). Particulars: cell proliferation IC50 in NHDF cells over A673 cells, 72 h. Type of data set: cell-based. On the procedure:
Small molecule splicing modulators were tested in a dose-response assay using A673 cells and NHDF cells.
A673 cells or NHDF cells were first plated in 96-well plastic tissue culture plates (10,000 cells per well). The cells were treated with vehicle alone (DMSO), or increasing concentrations of SMSM compounds for 72 h. Following treatment, cell proliferation was determined using a crystal violet assay. The relative cell proliferation at each concentration was determined.

Data set [1] in a line: Maximum tolerable dose study (survival, body weight). The data set is classed as in vivo. Particulars: mice. On the procedure:
Survival of mice after administration of SMSMs after 10 or 11 days was assessed.
Tolerance of the drug treatments was determined by measuring the weight of the mice during the period of drug administration. Body weight was measured prior to tumor inoculation and prior to the treatment administration and then daily. The changes in the final weight of the mice for the SMSM treatments were determined.

The test system of another data set is A673 xenografts. Kind of data set: A673 xenografts in nude mice, tumor growth inhibition. Particulars: A673 xenograft (FIGS. 14A-C). Type of data set: in vivo. On the procedure:
Dose range and time course studies comparing anti-neoplastic effects of SMSM−167 and SMSM−151 against vehicle were conducted.
Female NCrNu mice were used. Age range of enrolment was 7-10 weeks. A total of 75 animals were for the studies.
The A673 tumor cell line was maintained in vitro as a monolayer culture. […] The cells growing in an exponential growth phase were harvested and counted for tumor inoculation.
Each mouse were inoculated into a right flank with the single cell suspension of 95% viable tumor cells (5×10^6 cells/mouse) in serum-free RPMI 1640 Media for tumor development. Treatments were administered when mean tumor size reached approximately 75 mm^3.
Before commencement of treatment, all animals were weighed and assigned to treatment groups using a randomization procedure. Mice were randomized into groups based upon their tumor sizes to ensure that each group had approximately the same mean tumor size and range of tumor size.
After inoculation, the animals were checked daily for morbidity and mortality. At the time of routine monitoring, the animals were checked for any effects of tumor growth on normal behavior such as mobility, food and water consumption, body weight gain/loss, eye/hair matting and any other abnormal effects. Deaths and observed clinical signs were recorded.
Body weight were measured prior to tumor inoculation and prior to the treatment administration and then daily. Tumor size were measured 2-3 times per week in two dimensions using a caliper, and the volume were expressed in mm^3 using the formula: V=0.5×a×b^2 where a and b are the long and short diameters of the tumor, respectively.
(§1) Studies were terminated when the tumor size in the vehicle treated group reached 2,000 mm^3. Each mouse was bled at 2 hrs after the last dose and at least 50 μl of plasma were collected from each mouse. All of the collected plasma samples and retainer dosing solutions for each dose level were used for bioanalytical measurements. All tumors were also collected and weighed. One necrosis-free tumor fragment of approximately 50 mg was taken from each tumor and flash-frozen for RNA isolation. The remaining tumor was flash frozen for PK analysis.
Studies were performed to assess the effects of in vivo SMSM treatment on glioblastoma, breast, pancreatic, prostate, melanoma, lymphoma and Ewing sarcoma tumors. Studies were also performed to assess the effects of in vivo SMSM treatment on mRNA levels. Immunocompromised nude mice with pre-existing glioblastoma, breast, pancreatic, prostate, melanoma, lymphoma and Ewing sarcoma xenografts were treated with vehicle or SMSMs. Tumor tissues from subcutaneous xenografts were broken into a powder using a BioPulverizer (Biospec Products, Inc.). After SMSM treatment, mRNA was isolated from the xenografts and was analyzed by qRT-PCR.
as §1, with “Tumor size was measured 2 times per week in two dimensions using a caliper. Studies” for “Studies”, “plasma was” for “plasma were”
The effects of in vivo SMSM treatments on pre-existing subcutaneous glioblastoma, breast, pancreatic, prostate, melanoma, lymphoma and Ewing sarcoma xenografts were assessed. For these in vivo experiments, 1×10^6Raji, A375, A673, MDA-MB-231, BxPC-3, PC-3 or U87 (cells re-suspended in 100 μl PBS were subcutaneously injected into the flanks of nude mice. When the tumor reached approximately 100 mm^3 (volume=(¾)(π)(length/2)(width/2)^2), the treatments indicated in the tables below were initiated. […]

Another data set concerns A-673 cells. The data set can be described thus: A-673 cell viability. Type of data set: cell-based. Particulars: Homo sapiens, A673. On the procedure: FIG. 9A depicts a graph of viable A-673 cells when incubated with the indicated concentrations of an SMSM.
Another data set deals with FoxM1 A mRNA. The data set can be described thus: FoxM1 splicing in cells: FoxM1 A mRNA increase (exon excluded). Type of data set: cell-based. The note with it: read-out: Splice EC50 (nM) FoxM1 A mRNA increase (exon excluded). On the procedure: (§2) FIG. 7 depicts a graph of relative transcript levels of FOXM1 isoform A (represses cancer) and FOXM1 isoform B (promotes cancer) in A-673 cells incubated with the indicated concentrations of an SMSM.

In the next data set the test system is FoxM1 BC mRNA. Kind of data set: FoxM1 splicing in cells: FoxM1 BC mRNA decrease (exon included). The data set is classed as cell-based. Particulars: read-out: Splice IC50 (nM) FoxM1 BC mRNA decrease (exon included). Here is the method:
as §2

A further data set deals with IKBKAP. The data set can be described thus: IKBKAP splicing assay (IKBKAP^FL and IKBKAP^Δ20 mRNA, qPCR). Type of data set: cell-based. Particulars: 24 hours. Here is the method:
Various cells lines were treated with the SMSMs described herein. RNA was then isolated, cDNA synthesized, qPCR performed and the levels of IKBKAP targets of the SMSMs were detemined.
On the day of the experiment, a 96-well plate was seeded with the cell lines of interest. The cells were diluted with full growth media to a concentration of 2.0×10^5 cells/mL and 100 μL of cells were added to each well (20,000 cells per well). The cells were treated with a compound immediately after plating.
The compounds were then added to the cell plate using the HP compound dispenser. In the initial experiment, atop concentration of 10 μM and an 8 point 4-fold dilution scheme was used. […]
The qPCR was performed using a QuantStudio 6 instrument (ThermoFisher) and the following cycling conditions and according to the tables below. All samples and standards were analyzed in triplicate. […]
The determined IKBKAP^FL and IKBKAP^Δ20 isoform quantities were then used to determine the IKBKAP^FL: IKBKAP^Δ20 ratio at increasing SMSM compound concentrations. The PPIA quantities were used in the normalization to account of cell proliferation effects of the compounds.
An assay to measure the IKBKAP^FL mRNA and IKBKAP^Δ20 mRNA simultaneously in cell wells was performed. The RNA values were measured relative to DMSO control and also included a housekeeping gene, PPIA to ensure data was consistent. […]
In general terms: Quantitative PCR measures a nucleic acid by following its amplification.

As to `CN(c1ccc(-c2cc(F)c(-c3cn[nH]c3)cc2O)nn1)[C@H]1C[C@]2(C)CC[C@](C)(C1)N2` [compound 167, 2-(6-(((1R,3s,5S)-1,5-dimethyl-8-azabicyclo[3.2.1]octan-3-yl)(methyl)amino)pyridazin-3-yl)-4-fluoro-5-(1H-pyrazol-4-yl)phenol], in the data set with A673 cells, the “Ratio NHDF/A673 IC50” value was >2,500. Also, the Outcome entry in data set [1] (IP, 0.1 mg/kg, BIDx12) is “All survived”; in data set [1] (IP, 0.3 mg/kg, BIDx12), “All survived”; in data set [1] (IP, 1 mg/kg, QDx12), “All survived”; in data set [1] (PO, 5 mg/kg, QDx12), “All survived”. For the same compound, the “TGI(%)” value is reported as 65.56% in the data set on A673 xenografts (5 mg/kg BID PO, Day 7); 56.92% with A673 xenografts (5 mg/kg BID PO, Day 11); 55.14% in the data set with A673 xenografts (5 mg/kg BID PO, Day 14); 59.68% with A673 xenografts (5 mg/kg BID PO, Day 18); 59.45% with A673 xenografts (7.5 mg/kg BID PO, Day 7); 64.75% with A673 xenografts (7.5 mg/kg BID PO, Day 11). The “TGI(%)” value with A673 xenografts (7.5 mg/kg BID PO, Day 14) is on record as 64.43%; in the data set on A673 xenografts (7.5 mg/kg BID PO, Day 18) it was 72.80%; in the data set with A673 xenografts (10 mg/kg QD PO, Day 7) it was −32.72%; with A673 xenografts (10 mg/kg QD PO, Day 11), 3.85%; in the data set on A673 xenografts (10 mg/kg QD PO, Day 14), −2.13%; in the data set on A673 xenografts (10 mg/kg QD PO, Day 18), 41.77%.

A word on the IC50: it is the point on the concentration scale where inhibition reaches its midpoint. Usually EC50 stands for the concentration at which the effect is half-maximal. Take `Oc1cc(C2C=NN=N2)ccc1-c1ccc(O[C@@H]2C[C@H]3CC[C@@H](C2)N3)nn1` (stereo partly drawn) [compound 253, 2-(6-(((1R,3s,5S)-8-azabicyclo[3.2.1]octan-3-yl)oxy)pyridazin-3-yl)-5-(1H-1,2,3-triazol-4-yl)phenol]: the half-maximal inhibitory concentration (IC50) lay in the range of 501 to 1000 nM with A-673 cells and 251 to 500 nM in the data set with FoxM1 BC mRNA. Besides, the EC50 in the data set on FoxM1 A mRNA was in the range of 251 to 500 nM.

Compound `Oc1cc(-c2cn[nH]c2)ccc1-c1ccc(O[C@@H]2C[C@H]3CCC[C@@H](C2)N3)nn1` [compound 276, 2-(6-(((1R,3s,5S)-9-azabicyclo[3.3.1]nonan-3-yl)oxy)pyridazin-3-yl)-5-(1H-pyrazol-4-yl)phenol] gave an IC50 in the data set with A-673 cells of 101 to 250 nM.

Take `Oc1cc(-c2cn[nH]c2)ccc1-c1ccc(O[C@H]2C[C@H]3CCC[C@@H](C2)N3)nn1` [compound 277, 2-(6-(((1R,3r,5S)-9-azabicyclo[3.3.1]nonan-3-yl)oxy)pyridazin-3-yl)-5-(1H-pyrazol-4-yl)phenol]: the half-maximal inhibitory concentration (IC50) with A-673 cells and in the data set with FoxM1 BC mRNA was greater than 1000 nM throughout. The EC50 with FoxM1 A mRNA was greater than 1000 nM.

In the data set on IKBKAP (IKBKAP^FL mRNA increase), `Oc1cc(-c2cn[nH]c2)c(F)cc1-c1ccc(O[C@@H]2C[C@H]3CCC[C@@H](C2)N3)nn1` [compound 278, 2-(6-(((1R,3s,5S)-9-azabicyclo[3.3.1]nonan-3-yl)oxy)pyridazin-3-yl)-4-fluoro-5-(1H-pyrazol-4-yl)phenol] had an EC50 of 101 to 350 nM. Also, in the data set with IKBKAP (IKBKAP^Δ20 mRNA decrease), the IC50 was less than 200 nM.

The values are drawn from US11326165B1, “Methods and compositions for modulating splicing” (SKYHAWK THERAPEUTICS, INC., priority 2017, dated 2022).
